How the values were obtained:
Experiment in all cases: relative viability (nuclei count vs DMSO), 5 days (fraction); higher = more cells survive
BEN = test system: BEN
Outline: (§1)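 Each reported value is a median over duplicate plates. It expresses relative viability: treated-well nuclei count divided by vehicle-well nuclei count. Lung cancer cell lines in 1536-well plates were dosed by pin tool a day after seeding, alone with one drug or with a fixed anchor-drug dose plus five library-drug doses (not always all listed) in √10 steps, and nuclei were counted after 5 days.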

ChaGo-K-1 = test system: ChaGo-K-1
Outline: as §1

HCC-78 = test system: HCC-78
Outline: as §1

LC-2-ad = test system: LC-2-ad
Outline: as §1

LCLC-97TM1 = test system: LCLC-97TM1
Outline: as §1

LK-2 = test system: LK-2
Outline: as §1

LU99A = test system: LU99A
Outline: as §1

LXF-289 = test system: LXF-289
Outline: as §1

NCI-H1355 = test system: NCI-H1355
Outline: as §1

NCI-H1651 = test system: NCI-H1651
Outline: as §1

NCI-H1666 = test system: NCI-H1666
Outline: as §1

NCI-H1944 = test system: NCI-H1944
Outline: as §1

NCI-H1975 = test system: NCI-H1975
Outline: as §1

NCI-H2087 = test system: NCI-H2087
Outline: as §1

NCI-H2342 = test system: NCI-H2342
Outline: as §1

NCI-H358 = test system: NCI-H358
Outline: as §1

NCI-H596 = test system: NCI-H596
Outline: as §1

NCI-H650 = test system: NCI-H650
Outline: as §1

NCI-H661 = test system: NCI-H661
Outline: as §1

NCI-H838 = test system: NCI-H838
Outline: as §1

PC-3 [JPC-3] = test system: PC-3 [JPC-3]
Outline: as §1

SK-MES-1 = test system: SK-MES-1
Outline: as §1

`Nc1ccn([C@@H]2O[C@H](CO)[C@@H](O)[C@@H]2O)c(=O)n1` [Cytarabine] + Cc1nc(Nc2ncc(C(=O)Nc3c(C)cccc3Cl)s2)cc(N2CCN(CCO)CC2)n1 [Dasatinib] (partner 0.075 µM) showed a relative viability (BEN; first compound 0.005 µM) of 0.332, a relative viability (BEN; first compound 0.01581 µM) of 0.312 and a relative viability (BEN; first compound 0.05 µM) of 0.204. For the same molecule, the relative viability (BEN; first compound 0.1581 µM) was 0.175, the relative viability (BEN; first compound 0.5 µM) was 0.213 and the relative viability (ChaGo-K-1; first compound 0.005 µM) was 0.518. For the same molecule, the relative viability (ChaGo-K-1; first compound 0.01581 µM) was 0.347, the relative viability (ChaGo-K-1; first compound 0.05 µM) was 0.384 and the relative viability (ChaGo-K-1; first compound 0.1581 µM) was 0.182. It also gave a relative viability (ChaGo-K-1; first compound 0.5 µM) of 0.184, a relative viability (HCC-78; first compound 0.005 µM) of 0.585 and a relative viability (HCC-78; first compound 0.01581 µM) of 0.363. It also gave a relative viability (HCC-78; first compound 0.05 µM) of 0.27, a relative viability (HCC-78; first compound 0.1581 µM) of 0.228 and a relative viability (HCC-78; first compound 0.5 µM) of 0.208. The relative viability (LC-2-ad; first compound 0.005 µM) was 0.358, the relative viability (LC-2-ad; first compound 0.01581 µM) was 0.308 and the relative viability (LC-2-ad; first compound 0.05 µM) was 0.347. The relative viability (LC-2-ad; first compound 0.1581 µM) was 0.225, the relative viability (LC-2-ad; first compound 0.5 µM) was 0.214 and the relative viability (LCLC-97TM1; first compound 0.005 µM) was 0.795. For the same molecule, the relative viability (LCLC-97TM1; first compound 0.01581 µM) was 0.839, the relative viability (LCLC-97TM1; first compound 0.05 µM) was 0.798 and the relative viability (LCLC-97TM1; first compound 0.1581 µM) was 0.227. The relative viability (LCLC-97TM1; first compound 0.5 µM) was 0.264, the relative viability (LK-2; first compound 0.005 µM) was 0.309 and the relative viability (LK-2; first compound 0.01581 µM) was 0.27. The relative viability (LK-2; first compound 0.05 µM) was 0.236, the relative viability (LK-2; first compound 0.1581 µM) was 0.157 and the relative viability (LK-2; first compound 0.5 µM) was 0.163. It also gave a relative viability (LU99A; first compound 0.005 µM) of 0.563, a relative viability (LU99A; first compound 0.01581 µM) of 0.647 and a relative viability (LU99A; first compound 0.05 µM) of 0.58. The relative viability (LU99A; first compound 0.1581 µM) was 0.578, the relative viability (LU99A; first compound 0.5 µM) was 0.364 and the relative viability (LXF-289; first compound 0.005 µM) was 0.221. The relative viability (LXF-289; first compound 0.01581 µM) was 0.202, the relative viability (LXF-289; first compound 0.05 µM) was 0.171 and the relative viability (LXF-289; first compound 0.1581 µM) was 0.112. It also gave a relative viability (LXF-289; first compound 0.5 µM) of 0.0684, a relative viability (NCI-H1355; first compound 0.005 µM) of 0.641 and a relative viability (NCI-H1355; first compound 0.01581 µM) of 0.672. For the same molecule, the relative viability (NCI-H1355; first compound 0.05 µM) was 0.486, the relative viability (NCI-H1355; first compound 0.1581 µM) was 0.352 and the relative viability (NCI-H1355; first compound 0.5 µM) was 0.369. The relative viability (NCI-H1651; first compound 0.005 µM) was 0.406, the relative viability (NCI-H1651; first compound 0.01581 µM) was 0.457 and the relative viability (NCI-H1651; first compound 0.05 µM) was 0.397. It also gave a relative viability (NCI-H1651; first compound 0.1581 µM) of 0.179, a relative viability (NCI-H1651; first compound 0.5 µM) of 0.205 and a relative viability (NCI-H1666; first compound 0.005 µM) of 0.773. It also gave a relative viability (NCI-H1666; first compound 0.01581 µM) of 0.725, a relative viability (NCI-H1666; first compound 0.05 µM) of 0.642 and a relative viability (NCI-H1666; first compound 0.1581 µM) of 0.396. It also gave a relative viability (NCI-H1666; first compound 0.5 µM) of 0.394, a relative viability (NCI-H1944; first compound 0.005 µM) of 0.177 and a relative viability (NCI-H1944; first compound 0.01581 µM) of 0.123. For the same molecule, the relative viability (NCI-H1944; first compound 0.05 µM) was 0.117, the relative viability (NCI-H1944; first compound 0.1581 µM) was 0.0903 and the relative viability (NCI-H1944; first compound 0.5 µM) was 0.0942. For the same molecule, the relative viability (NCI-H1975; first compound 0.005 µM) was 0.329, the relative viability (NCI-H1975; first compound 0.01581 µM) was 0.47 and the relative viability (NCI-H1975; first compound 0.05 µM) was 0.338. It also gave a relative viability (NCI-H1975; first compound 0.1581 µM) of 0.297, a relative viability (NCI-H1975; first compound 0.5 µM) of 0.191 and a relative viability (NCI-H2087; first compound 0.005 µM) of 0.747. The relative viability (NCI-H2087; first compound 0.01581 µM) was 0.712, the relative viability (NCI-H2087; first compound 0.05 µM) was 0.82 and the relative viability (NCI-H2087; first compound 0.1581 µM) was 0.265. For the same molecule, the relative viability (NCI-H2087; first compound 0.5 µM) was 0.233, the relative viability (NCI-H2342; first compound 0.005 µM) was 0.309 and the relative viability (NCI-H2342; first compound 0.01581 µM) was 0.295. For the same molecule, the relative viability (NCI-H2342; first compound 0.05 µM) was 0.262, the relative viability (NCI-H2342; first compound 0.1581 µM) was 0.257 and the relative viability (NCI-H2342; first compound 0.5 µM) was 0.277. For the same molecule, the relative viability (NCI-H358; first compound 0.005 µM) was 0.206, the relative viability (NCI-H358; first compound 0.01581 µM) was 0.167 and the relative viability (NCI-H358; first compound 0.05 µM) was 0.131. For the same molecule, the relative viability (NCI-H358; first compound 0.1581 µM) was 0.0707, the relative viability (NCI-H358; first compound 0.5 µM) was 0.0702 and the relative viability (NCI-H596; first compound 0.005 µM) was 0.606. The relative viability (NCI-H596; first compound 0.01581 µM) was 0.477, the relative viability (NCI-H596; first compound 0.05 µM) was 0.601 and the relative viability (NCI-H596; first compound 0.1581 µM) was 0.48. For the same molecule, the relative viability (NCI-H596; first compound 0.5 µM) was 0.427, the relative viability (NCI-H650; first compound 0.005 µM) was 0.474 and the relative viability (NCI-H650; first compound 0.01581 µM) was 0.399. It also gave a relative viability (NCI-H650; first compound 0.05 µM) of 0.257, a relative viability (NCI-H650; first compound 0.1581 µM) of 0.213 and a relative viability (NCI-H650; first compound 0.5 µM) of 0.165. For the same molecule, the relative viability (NCI-H661; first compound 0.005 µM) was 0.636, the relative viability (NCI-H661; first compound 0.01581 µM) was 0.529 and the relative viability (NCI-H661; first compound 0.05 µM) was 0.516. For the same molecule, the relative viability (NCI-H661; first compound 0.1581 µM) was 0.358, the relative viability (NCI-H661; first compound 0.5 µM) was 0.283 and the relative viability (NCI-H838; first compound 0.005 µM) was 0.281. The relative viability (NCI-H838; first compound 0.01581 µM) was 0.274, the relative viability (NCI-H838; first compound 0.05 µM) was 0.229 and the relative viability (NCI-H838; first compound 0.1581 µM) was 0.214. The relative viability (NCI-H838; first compound 0.5 µM) was 0.164, the relative viability (PC-3 [JPC-3]; first compound 0.005 µM) was 0.952 and the relative viability (PC-3 [JPC-3]; first compound 0.01581 µM) was 0.884. For the same molecule, the relative viability (PC-3 [JPC-3]; first compound 0.05 µM) was 1.01, the relative viability (PC-3 [JPC-3]; first compound 0.1581 µM) was 0.63 and the relative viability (PC-3 [JPC-3]; first compound 0.5 µM) was 0.603. The relative viability (SK-MES-1; first compound 0.005 µM) was 0.213, the relative viability (SK-MES-1; first compound 0.01581 µM) was 0.174 and the relative viability (SK-MES-1; first compound 0.05 µM) was 0.127. For the same molecule, the relative viability (SK-MES-1; first compound 0.1581 µM) was 0.117 and the relative viability (SK-MES-1; first compound 0.5 µM) was 0.113.

Source: the supplement of paper PMC10307832
